Test results: BindingDB's records for doi:10.1021/jm9700171 (Washington University, 1998)

Biological target: Substance-P receptor (Bos taurus)
Assay: Binding affinity was measured against the Tachykinin receptor 1 in bovine retina using [3H]SP

| Compound | IC50 |
| --- | --- |
| Cc1cc(C)cc(C(=O)N[C@H]2CCN(C(=O)c3cc(Cl)cc(Cl)c3)[C@H](Cc3ccccc3)C2)c1 | 0.0257 µM |
| Cc1cc(C)cc(C(=O)N2CC[C@H](NCCc3ccccc3)C[C@H]2Cc2ccccc2)c1 [CGP-47899] | 0.0151 µM |
